This is an account of results in publication PMC549391 (Nucleic Acids Research, 2005).

This assay deals with T1, ribonuclease III (RNase III) (Escherichia coli, UniProt P0A7Y0).
T1 sequence (P0A7Y0 1-226): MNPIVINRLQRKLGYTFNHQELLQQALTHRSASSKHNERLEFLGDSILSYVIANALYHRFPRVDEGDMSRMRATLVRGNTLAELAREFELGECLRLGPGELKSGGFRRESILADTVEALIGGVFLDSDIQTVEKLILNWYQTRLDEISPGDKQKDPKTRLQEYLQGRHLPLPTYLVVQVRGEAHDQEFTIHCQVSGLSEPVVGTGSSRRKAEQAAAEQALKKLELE
The assay is described as follows: cleavage of […]-labeled R1.[…] RNA by purified RNase III, gel assay, […] Mg2+. Type of assay: biochemical.

For the compound `O=C1Cc2ccccc2C(=O)N1O` [compound 1, 2-hydroxy-4H-isoquinoline-1,3-dione], it took 14 ± 2 µM to reach half-maximal inhibition (IC50).
